Like-named read-outs stand apart in the source and are kept apart here.
Columns and labels:
[1] = Solid form stability of CHP forms by XRPD (storage, drying, DVS)
SARS-CoV-2 = test: microbe, parasite or virus in culture; assay type: cell-based; details: for antiviral activity: used alone; for EC50: read-out: Effective drug concentration (EC50)
[2] = muscle tissues and intestinal segments; cited from earlier work
Zn influx into the cell = test: Zn penetration into the cells; assay type: cell-based
in vitro = details: African green monkey (Cercopithecus aethiops)
RTCs of SARS-CoV = details: in vitro; cited from earlier work
[3] = tested on: RTCs of equine arteritis virus (EAV); details: in vitro; cited from earlier work
COVID-19 = details: hospitalized COVID-19 patients, compared to standard of care, interim trial results; cited from earlier work

O=C1N[C@@H](Cc2cnc[nH]2)C(=O)N2CCC[C@@H]12 [CHP hydrate, cyclo(-His-Pro) hydrate]
pKa (physchem): ~6.4 | form by XRPD ([1]; post various temperature DVS (VT-DVS)): a mixture of Patterns 1 and 2 | change in form by XRPD ([1]; post-DVS, 40% RH): no change in form | change in form by XRPD ([1]; stored 40° C./75% RH, seven days): no change | change in form by XRPD ([1]; stored at 80° C., seven days): converted to Pattern 1 | change in form by XRPD ([1]; stored at ambient light, seven days): no change

O=C1N[C@@H](Cc2cnc[nH]2)C(=O)N2CCC[C@@H]12 [CHP, Cyclo(-His-Pro)]
Selectivity index (SI) CC50/EC50 (SARS-CoV-2; calculated CC50/EC50): ≥ 1.6 | antiviral activity (SARS-CoV-2; at a concentration of 10 μmol or lower): does not show antiviral activity | antiviral activity (SARS-CoV-2; at the concentration of 30 mmol): shows an antiviral activity | zinc absorption and uptake [2]: enhanced zinc absorption and uptake

CCN(CC)CCCC(C)Nc1ccnc2cc(Cl)ccc12 (stereo not drawn) [Chloroquine, chloroquine]
EC50 (SARS-CoV-2; Severe acute respiratory syndrome coronavirus 2, Vero): 13 µM | Zn penetration into the cells (Zn influx into the cell): an increase of Zn penetration into the cells | CC50 (in vitro): > 100 µM

O=C1N[C@@H](Cc2cnc[nH]2)C(=O)N2CCC[C@@H]12 [Pattern 1]
form by XRPD ([1]; Pattern 1 post dynamic vapor sorption (DVS)): changed to Pattern 2

[Zn+2] [Zn, zinc]
RNA-synthesizing activity of the RTCs (RTCs of SARS-CoV): efficiently inhibits | RNA-synthesizing activity of the RTCs [3]: efficiently inhibits | cytotoxicity (cell killing) (Vero cells; at the concentration of 600 μmol): kills the cells | CC50 (Vero cells; read-out: Cytotoxicity (CC50), Vero cells, concentration resulting in 50% cell death): 486 µM | EC50 (SARS-CoV-2; Vero cells, SARS-CoV-2 MOI 0.1, concentration inhibiting virus replication by 50%): 480 µM | antiviral activity (SARS-CoV-2; at concentrations 200 μmol or lower): does not show any antiviral activity

CCN(CCO)CCCC(C)Nc1ccnc2cc(Cl)ccc12 (stereo not drawn) [hydroxychloroquine]
reduction in the mortality (COVID-19): little or no reduction

— US11547737B2, “Compositions and methods for treating virus infection” (priority 2020, dated 2023)
